Tests used:
PDK1 kinase = target: T1, PDK1 kinase (Homo sapiens, UniProt O15530); experiment: PDK1 Kinase Alpha Screen Assay; type: biochemical; details: read-out: PDK1 IC50
T1 sequence (O15530 1-556): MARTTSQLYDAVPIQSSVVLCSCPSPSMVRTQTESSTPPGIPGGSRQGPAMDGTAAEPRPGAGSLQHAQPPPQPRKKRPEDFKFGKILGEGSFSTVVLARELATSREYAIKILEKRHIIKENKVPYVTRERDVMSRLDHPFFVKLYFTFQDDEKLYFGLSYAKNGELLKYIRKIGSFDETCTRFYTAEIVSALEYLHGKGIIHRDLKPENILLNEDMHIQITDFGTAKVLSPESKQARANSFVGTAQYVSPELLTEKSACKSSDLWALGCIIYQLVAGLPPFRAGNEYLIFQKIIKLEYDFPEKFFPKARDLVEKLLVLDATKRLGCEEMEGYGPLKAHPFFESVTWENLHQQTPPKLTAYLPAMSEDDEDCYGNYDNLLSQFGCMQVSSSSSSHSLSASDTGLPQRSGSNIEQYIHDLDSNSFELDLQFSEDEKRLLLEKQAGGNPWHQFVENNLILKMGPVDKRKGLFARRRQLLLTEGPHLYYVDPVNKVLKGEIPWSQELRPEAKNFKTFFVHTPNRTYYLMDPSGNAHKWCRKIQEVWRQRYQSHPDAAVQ
Summary of the method: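 Biotinylated PDK1-4 peptide (50 nM) phosphorylated by PDK1 with 10 uM ATP in pH 7.5 Tris/MgCl2/DTT buffer, 2.5% DMSO, for 3-18 hours. EDTA stop, then AlphaScreen detection with phospho-(Ser/Thr) PKA substrate antibody and protein A/streptavidin beads after overnight room-temperature development.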

A2780 cells = experiment: Cell Proliferation Assay (Cell Titer Glo), A2780; type: cell-based; details: Homo sapiens, 72 h; A2780 cells, 3 days incubation; read-out: CPEC50 A2780
Summary of the method: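 Cells seeded at 1000/well, allowed to adhere 3-5 h, then exposed to DMSO-dissolved compounds for 3 days at 37° C., 5% CO2. Medium replaced before Cell Titer Glo addition; luminescence read after 10 min.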

PC-3 cells = experiment: Cell Proliferation Assay (Cell Titer Glo), PC-3 cell line; type: cell-based; details: Homo sapiens, PC-3, 72 h, PC-3 cells, 3 days incubation; read-out: CP EC50 PC3
Summary of the method: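 PC-3 cells, 1000 cells/well, left to adhere 3-5 h, then exposed for 3 days at 37° C to compounds as 1:3 serial dilutions from 500× DMSO stocks diluted in growth medium. Medium then replaced with fresh medium and viability read by Cell Titer Glo luminescence.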

[1] = test system: pAkt308 (phosphorylation of Akt at T308) in PC-3 cells; experiment: pAkt T308 ECL Assay in PC-3 cells; type: cell-based; details: Homo sapiens, 6 h, six hours with compound, read-out: PAKT308 PC3 IC50
Method: VI. The pAkt^T308 ECL Assay Protocol
On Day 1, PC-3 cells were seeded at 15,000 cells/well in 100 μL/well ([…]) growth media into black-walled, clear bottom, poly-L-lysine coated plates. The cells were incubated overnight in a 37° C., 5% CO2 incubator.
On Day 2, a MSD ECL plate was blocked for two hours with 150 μL per well of 3% MSD blocker A.
Test compounds were diluted to 500× in DMSO and then were subjected to further serial dilution using a BioMek 2000 instrument. DMSO diluted compounds were then diluted into growth media and then added to the cell plates.
The cell plates incubated with compounds for six hours in a 37° C., 5% CO2 incubator after which the growth medium was removed and 55 μl of MSD lysis buffer was added to cell plates on ice. The plates were lysed on ice for five minutes followed by 15 minutes of vigorous shaking on a plate shaker at 4° C. The blocked MSD assay plates were washed twice with 1×MSD wash buffer followed by the addition of cell lysate as follows: 30 μl of cell lysate was added to the pAkt308 plates and 13 μl of lysate+12 μl lysis buffer was added to the tAkt plates. The plates were then sealed and shaken at 4° C. overnight.
On Day 3, the MSD plates were washed four times with 1×MSD wash buffer then, 25 μl/well of MSD SULFO-TAG antibodies diluted to 10 nM final concentration in 1% blocker. A buffer was added to the antibody diluent which was added to assay plates. The plates were then sealed and incubated at RT for 1.5 hour. The plates were then washed twice with 1×MSD wash buffer followed by the addition of 150 μl/well of 1.5×MSD read buffer. The plates were read immediately after the addition of read buffer using a Trilux instrument. […]

| IC50 (PDK1 kinase) [µM] | EC50 (A2780 cells) [µM] | EC50 (PC-3 cells) [µM] | IC50 [1] [µM] | SMILES |
| --- | --- | --- | --- | --- |
| < 5 | < 5 | < 5 | 5 to 10 | NS(=O)(=O)c1ccc(Nc2ncc3cc(Br)cc(OC4CCNCC4)c3n2)cc1 [Compound 1, 4-[6-Bromo-8-(piperidin-4-yloxy)-quinazolin-2-ylamino]-benzenesulfonamide] |
| < 5 | < 5 | < 5 | < 5 | O=S(=O)(c1ccc(Nc2ncc3cccc(OC4CCNCC4)c3n2)cc1)N1CCOCC1 [Compound 3, [4-(Morpholine-4-sulfonyl)-phenyl]-[8-(piperidin-4-yloxy)-quinazolin-2-yl]-amine] |
| < 5 | < 5 | < 5 | < 5 | CC(C)N1CCC(Oc2cccc3cnc(Nc4ccc(S(=O)(=O)N5CCOCC5)cc4)nc23)CC1 [Compound 4, [8-(1-Isopropyl-piperidin-4-yloxy)-quinazolin-2-yl]-[4-(morpholine-4-sulfonyl)-phenyl]-amine] |
| < 5 | < 5 | < 5 | < 5 | CC(C)NS(=O)(=O)c1ccc(Nc2ncc3cccc(OC4CCNCC4)c3n2)cc1 [Compound 11, N-Isopropyl-4-[8-(piperidin-4-yloxy)-quinazolin-2-ylamino]-benzenesulfonamide] |
| < 5 | < 5 | < 5 | < 5 | COCCNS(=O)(=O)c1ccc(Nc2ncc3cccc(OC4CCNCC4)c3n2)cc1 [Compound 12, N-(2-Methoxy-ethyl)-4-[8-(piperidin-4-yloxy)-quinazolin-2-ylamino]-benzenesulfonamide] |
| < 5 | < 5 | < 5 | < 5 | O=S(=O)(NC1CC1)c1ccc(Nc2ncc3cccc(OC4CCNCC4)c3n2)cc1 [Compound 13, N-Cyclopropyl-4-[8-(piperidin-4-yloxy)-quinazolin-2-ylamino]-benzenesulfonamide] |
| < 5 | < 5 | < 5 | 5 to 10 | O=S(=O)(NCCN1CCCC1)c1ccc(Nc2ncc3cccc(OC4CCNCC4)c3n2)cc1 [Compound 14, 4-[8-(Piperidin-4-yl-oxy)-quinazolin-2-ylamino]-N-(2-pyrrolidin-1-yl-ethyl)-benzenesulfonamide] |
| < 5 | < 5 | < 5 | < 5 | NS(=O)(=O)c1ccc(Nc2ncc3cccc(OC4CCNCC4)c3n2)cc1 [Compound 31, 4-[8-(Piperidin-4-yloxy)-quinazolin-2-ylamino]-benzenesulfonamide] |
| < 5 | < 5 | < 5 | < 5 | CC(C)N1CCC(Oc2cccc3cnc(Nc4ccc(S(N)(=O)=O)cc4)nc23)CC1 [Compound 36, 4-[8-(1-Isopropyl-piperidin-4-yloxy)-quinazolin-2-ylamino]-benzenesulfonamide] |
| < 5 | < 5 | < 5 | < 5 | CC(C)N1CCC(Oc2ccc3cnc(Nc4ccc(S(N)(=O)=O)cc4)nc3c2)CC1 [Compound 42, 4-[7-(l-Isopropyl-piperidin-4-yloxy)-quinazolin-2-ylamino]-benzenesulfonamide] |
| < 5 | < 5 | < 5 | < 5 | CC(C)NC(=O)c1ccc(Nc2ncc3cccc(OC4CCN(C(C)C)CC4)c3n2)cc1 [Compound 44, N-Isopropyl-4-[8-(1-isopropyl-piperidin-4-yloxy)-quinazolin-2-ylamino]-benzamide] |
| < 5 | < 5 | < 5 | < 5 | CC(C)CN1CCC(Oc2cccc3cnc(Nc4ccc(S(N)(=O)=O)cc4)nc23)CC1 [Compound 45, 4-[8-(1-Isobutyl-piperidin-4-yloxy)-quinazolin-2-ylamino]-benzenesulfonamide] |
| < 5 | < 5 |  | 5 to 10 | CCN1CCC(Oc2cccc3cnc(Nc4ccc(S(N)(=O)=O)cc4)nc23)CC1 [Compound 46, 4-[8-(1-Ethyl-piperidin-4-yloxy)-quinazolin-2-ylamino]-benzenesulfonamide] |
| < 5 | < 5 | < 5 | < 5 | NS(=O)(=O)c1ccc(Nc2ncc3ccc(OC4CCNCC4)cc3n2)cc1 [Compound 51, 4-[7-(Piperidin-4-yloxy)-quinazolin-2-ylamino]-benzenesulfonamide] |
| < 5 | < 5 | < 5 | < 5 | CN1CCC(Oc2ccc3cnc(Nc4ccc(S(=O)(=O)N5CCOCC5)cc4)nc3c2)CC1 [Compound 53, [7-(1-Methyl-piperidin-4-yloxy)-quinazolin-2-yl]-[4-(morpholine-4-sulfonyl)-phenyl]-amine] |
| < 5 | < 5 |  | 5 to 10 | CC(C)Cn1cc(-c2ccc3cnc(Nc4ccc(S(N)(=O)=O)cc4)nc3c2OC2CCNCC2)cn1 [Compound 65] |
| < 5 | < 5 |  | 5 to 10 | NS(=O)(=O)c1ccc(Nc2ncc3ccc(-c4cnccn4)c(OC4CCNCC4)c3n2)cc1 [Compound 66, 4-[8-(Piperidin-4-yloxy)-7-pyrazin-2-yl-quinazolin-2-ylamino]-benzenesulfonamide] |
| < 5 | < 5 | < 5 | < 5 | NS(=O)(=O)c1ccc(Nc2ncc3ccc(-c4ccccc4)c(OC4CCNCC4)c3n2)cc1 [Compound 67, 4-[7-Phenyl-8-(piperidin-4-yloxy)-quinazolin-2-ylamino]-benzenesulfonamide] |
| < 5 | < 5 |  | < 5 | NS(=O)(=O)c1ccc(Nc2ncc3ccc(-c4cccnc4)cc3n2)cc1 [Compound 133, 4-(7-Pyridin-3-yl-quinazolin-2-ylamino)-benzenesulfonamide] |
| < 5 | < 5 |  | 5 to 10 | COc1cncc(-c2ccc3cnc(Nc4ccc(S(N)(=O)=O)cc4)nc3c2)c1 [Compound 138, 4-[7-(5-Methoxy-pyridin-3-yl)-quinazolin-2-ylamino]-benzenesulfonamide] |

| SMILES | IC50 (PDK1 kinase) [µM] | EC50 (A2780 cells) [µM] | EC50 (PC-3 cells) [µM] | IC50 [1] [µM] |
| --- | --- | --- | --- | --- |
| NS(=O)(=O)c1ccc(Nc2ncc3cc(Br)cc(OC4CN5CCC4CC5)c3n2)cc1 (stereo not drawn) [Compound 2, 4-[8-(1-Aza-bicyclo[2.2.2]oct-3-yloxy)-6-bromo-quinazolin-2-yl-amino]-benzenesulfonamide] | < 5 | < 5 | < 5 | < 5 |
| NS(=O)(=O)c1ccc(Nc2ncc3cccc(O[C@@H]4CN5CCC4CC5)c3n2)cc1 [Compound 40, 4-[8-((S)-3-quinuclidinyloxy)-quinazolin-2-ylamino]-benzenesulfonamide] | < 5 | < 5 | < 5 | < 5 |
| CN1C2CCC1CC(Oc1cccc3cnc(Nc4ccc(S(N)(=O)=O)cc4)nc13)C2 (stereo not drawn) [Compound 41, 4-[8-(8-Methyl-8-aza-bicyclo[3.2.1]oct-3-yloxy)-quinazolin-2-ylamino]-benzenesulfonamide] | < 5 | < 5 | < 5 | < 5 |
